Assay results from patent US6326177A, “Method and apparatus for intracellular electro-manipulation” (Eastern Virginia Medical School of the Medical College of …, priority 2000, dated 2001).
Entries after “also recorded” stand apart in the source; their conditions may differ.

Assays:
[1] = test system: eosinophils; assay: Free calcein staining of eosinophil granules after Triton X-100 treatment (fluorescence and Wright-Giemsa microscopy); assay type: cell-based, human; conditions: 5 minutes
Method: BOTTOM ROW: Wright-Giemsa stained (above) and fluorescent (below) images of eosinophils treated with 1 μM free calcein+0.005% Triton X-100 for 5 minutes (left), eosinophils treated with 0.01% Triton X-100+1 μM free calcein (5 minutes) (center) and eosinophils incubated in 0.05% Triton X-100+1 μM free calcein for 5 minutes.
Free calcein is a highly fluorescent modified fluorescein with 6 negative and 2 positive charges that is membrane impermeant. In its methyl ester form, calcein-AM, it is non-fluorescent and membrane permeable. When used as a fluorescent stain for cells, calcein-AM passes through the surface membrane and is cleaved to free calcein+the methyl ester residue by intracellular esterase activities. This modification traps the free calcein in the cytoplasm of the cell, and retention of the free calcein is a common criterion for intactness of the surface membrane.

[2] = test system: PMN; assay: Triton X-100 effect on PMN in the free calcein staining experiment; assay type: cell-based, human; conditions: 5 minutes
Method: Aliquots of an eosinophil-enriched leukocyte preparation (65% eosinophils) were exposed to 1 μM free calcein in HBSSw/o plus increasing amounts (0%-0.05%) Triton X-100 (5 minutes, 25° C.) and examined microscopically. […] Red eosinophil autofluorescence was readily visible and was also visible in all conditions up to and including the free calcein +0.01% Triton exposure. […] After Wright-Giemsa staining, these were recognized to be the residual nuclei of fully detergent-solubilized cells (pale green fluorescence) with associated eosinophilic granules corresponding exactly to the punctate areas of bright fluorescence (see FIG. 26).
Calcein-AM stained eosinophils trap free calcein in their cytoplasm after staining (left), and the intracellular free calcein is excluded from the eosinophil's large granules as shown on the left.

[3] = 0.001% Triton X-100 + 1 μM free calcein
[4] = 0.005% Triton X-100 + 1 μM free calcein

Row | Molecule | calcein staining of eosinophils exposed to free calcein without Triton ([1]; 1 μM free calcein in HBSSw/o, 0% Triton, 25° C.) | free calcein staining / detergent effect on eosinophils [1, 3] | free calcein staining / detergent effect on eosinophils [1, 4] | free calcein staining / detergent effect on eosinophils ([1]; 0.01% Triton X-100 + 1 μM free calcein) | free calcein staining / detergent effect on eosinophils ([1]; 0.05% Triton X-100 + 1 μM free calcein) | free calcein staining / detergent effect on PMN [2, 3] | free calcein staining / detergent effect on PMN [2, 4]
1 | O=C(O)CN(CC(=O)O)Cc1cc2c(cc1O)Oc1cc(O)c(CN(CC(=O)O)CC(=O)O)cc1C21OC(=O)c2ccccc21 [free calcein] | no calcein staining; also recorded: incapable of staining eosinophil cytoplasm | – | – | – | – | – | –
2 | Triton X-100 | – | free calcein continues to be excluded from eosinophils | the morphology of some eosinophils suggests partial detergent solubilization which is accompanied by bright free calcein staining of eosinophil granules | occasional eosinophils showed an isolated bright green granule within the eosinophil autofluorescence pattern; also recorded: all eosinophils show nuclear changes suggestive of detergent effect, and many contain 1-2 bright granules on a background of red autofluorescence | many discrete areas of pale green fluorescence with overlying, bright green punctate areas of fluorescence; also recorded: only eosinophil nuclear remnants are seen | stains the fine granules of a PMN showing obvious detergent effects | detergent solubilized PMN show very fine, fluorescent "calcein sand" staining patterns
